The test system of test [1] is E-cadherin expression in HCT-8 cells. Briefly: Western blot of E-cadherin expression, HCT-8 cells (EntF*, alanine and D-amino acid analogs). The format is cell-based. The method, then: (§1) HCT-8, HT-29, and HT-116 cells were grown in DMEM medium supplied with 10% fetal bovine serum (FBS) and 1% penicillin-streptomycin. Caco-2 cells were grown in DMEM medium supplied with 10% FBS, 1% non-essential amino acid NEAA), and 1% penicillin-streptomycin. Cells were cultured at 37 °C and 5% CO2. As cells reached confluency, they were detached using 0.25% Trypsin-EDTA.
(§2) For Western blot analyses, HCT-8 (n = 15), HCT-116 (n = 12), Caco-2 (n = 6), and HT-29 (n = 12) cells were seeded in 6-well plates at a density of 1 × 10^6 cells/well. Twenty-four hours after seeding, all cell lines were treated with 1 μM EntF* or a placebo solution. HCT-8 cells were also tested for responsiveness to 1 μM EntF* synthetic alanine-derived analogs. For antagonist activity analysis, HCT-8 cells were treated with 1 μM Nef-M1 or 1 μM EntF*A1 alone or in combination with 500 nM EntF*. After 24 h, cells were detached from the surface and lysed in RIPA buffer (Thermo Scientific). Protein concentration was determined using the modified Lowry protein assay kit (Thermo Scientific), according to the manufacturer’s instructions. Protein samples were diluted to the same concentration (4 μg/μL) with water and diluted again 1:1 using 2x Laemmli buffer. After that, samples were boiled for 5 min at 95 °C to denature proteins and centrifuged for 5 min at 16,000g; supernatants were used for Western blot analyses. Equal amounts of total protein (20 μg/lane) were separated by SDS-PAGE on an Any kD^TM gel (Bio-Rad ) and then transferred to a PVDF membrane. Before incubation with antibodies, non-specific binding sites on the membranes were blocked using 5% skimmed milk solution (1 h). TBS buffer with 0.05% Tween 20 was used for all washing steps. Membranes were incubated overnight at 4 °C with an anti-E-cadherin primary antibody (1/1000 dilution). An HRP-conjugated anti-rabbit antibody (1/2000 dilution, 1 h incubation) was used for chemiluminescent detection. Membranes were incubated with the detection substrate for 5 min and signal detection was performed using the ChemiDoc EZ imager and Image Lab software (Bio-Rad). Signal intensity was normalized against the total protein content in each lanes.
A quantitative approach was used to evaluate the importance of each amino acid, where the Fisher’s LSD p-values of (1) multiple comparisons between EntF* and the alanine (ALA) scan and (2) multiple comparisons between different peptides of the ALA scan are combined. Subsequently, based on the combined P-score, the amino acids were classified in 5 classes using a hierarchical cluster analysis and confirmed using the Jenks natural breaks algorithm with K = 5. CombinedPscore=1-PPBSvsALAscan*PEntF*vsALAscan
(In western blotting, separated proteins are transferred to a membrane and probed.)

The test system of test [2] is E-cadherin expression in HT-29 cells. Briefly: Western blot of E-cadherin expression, HT-29 cells. It counts as cell-based. The note with it: HT-29 cells, average of n = 12. The method, then: as §1
as §2, with “Signal intensity was normalized against the total protein content in each lanes.” left out

The subject of test [3] is E-cadherin expression in Caco-2 cells. Briefly: Western blot of E-cadherin expression, Caco-2 cells. The format is cell-based. The note with it: CaCo-2 cells, average of n = 6. The method, then: as §1
as §2, with “Signal intensity was normalized against the total protein content in each lanes.” left out

In test [4] the test system is E-cadherin expression in HCT-116 cells. Briefly: Western blot of E-cadherin expression, CXCR4-negative HCT-116 cells. The format is cell-based. The method, then:
as §1, §2

Test [5] has as its system luciferase-transfected HCT-8/E11 cells injected into the cecal wall. Briefly: Orthotopic mouse model of colorectal cancer: weekly bioluminescent imaging. The format is in vivo, female athymic nude mice (Swiss nu/nu). The method, then: All in vivo experiments were performed according to the Ethical Committee principles of laboratory animal welfare, approved by our institute (Ghent University, Faculty of Medicine and Health Sciences, approval number ECD 17-90). Mice were maintained in a sterile environment under controlled conditions (light–dark cycle with light from 7:00 h to 17:00 h, temperature 21–25 °C and humidity 45–65%). Before the experiment, mice were allowed to acclimate to the abovementioned conditions for a minimum of 7 days.
(§3) Six-week-old female athymic nude mice (Swiss nu/nu) were anesthetized, and a minimally invasive midline laparotomy was performed to localize the cecum. The cecum was then gently pulled out, and luciferase-transfected HCT-8/E11 cells (1 × 10^6 cells) in 20 μL serum-free DMEM medium with Matrigel (1:1) were injected into the cecal wall. Before implantation, cells were treated with EntF* (10^2 nM), Phr0662 (10^2 nM), vehicle (PBS), or TGFα positive control (0.1 μg mL^−1) solutions for 5 days. The cecum was then carefully placed back into the abdominal cavity and the surgical incision was closed with two layers of sutures with PDS 6-0. […] Once a week, mice were examined for tumor growth and metastases using bioluminescent imaging with the IVIS Lumina II (Perkin Elmer, Belgium) after i.p. injection with 200 μL luciferin (150 mg kg^−1). After 6 weeks, mice were euthanized using cervical dislocation, and the liver, diaphragm, lungs, cecum, duodenum, and peritoneum were macroscopically examined for the presence of tumor nodules. Liver and lung tissues were then fixed in formalin for 24 h and stored in 70% ethanol for maximum 3 days before embedding in paraffin. Next, a hematoxylin and eosin (H&E) staining was performed on 8 μm sections, and 3 sections per mouse were visualized using microscopy. Slides from tumor-bearing mice were analyzed by two blinded, independent investigators using the scoring system described in Additional file 5: Table S3. In case of differences, slides were scored by a third blinded, independent investigator for consensus.
The Kolmogorov-Smirnov test was used to assess if data obtained were normally distributed. For sample size n < 10, non-parametric tests (Mann-Whitney U test) were performed directly. Slope comparison was based on linear regression analysis. Bootstrapped medians and Hedges G-values were used to calculate the effect size when sample sizes were different between the groups.

Test [6] has the same test system. Briefly: Orthotopic mouse model: macroscopic number of tumor nodules on the cecum. It counts as in vivo, female athymic nude mice (Swiss nu/nu). The method, then:
as §3
The Kolmogorov-Smirnov test was used to assess if data obtained were normally distributed. For sample size n < 10, non-parametric tests (Mann-Whitney U test) were performed directly. Slope comparison was based on linear regression analysis. Bootstrapped medians and Hedges G-values were used to calculate the effect size when sample sizes were different between the groups. Cohen’s d values were calculated as a measure of the effect size when similar standard deviations for both groups were found, and sample sizes were the same.

Test [7] relates to tumor nodules in the liver. Briefly: Orthotopic mouse model: histopathological evaluation of liver. The format is in vivo, female athymic nude mice (Swiss nu/nu). The method, then:
as §3

Test [8] deals with tumor nodules in the lungs. Briefly: Orthotopic mouse model: histopathological evaluation of lungs. It counts as in vivo, female athymic nude mice (Swiss nu/nu). The method, then:
as §3

Setting [9] is: after a 6-week treatment, compared to the placebo group.
The mark [10] stands for this setting: individual samples, one line per sample.

Consider 3 substances from paper PMC9238271, “The quorum sensing peptide EntF* promotes colorectal cancer metastasis in mice: a new factor in the host-microbiome interaction” (BMC Biology, 2022).

Several values for one entry are separate records, joined by “and”; a condition that tells them apart may be missing. Equal entries are not always repeated.

Turning to “C-X-C motif chemokine 12 (KPVSLSYRC; only N-terminal stretch given) [CXCL12, endogenous ligand of the CXCR4 receptor]”, the “effect on E-cadherin levels in HCT-8 cells” value in test [1] (24 h, n = 15) is “significant decrease”. Also, the “E-cadherin expression relative to H2O control (= 100)” value in test [1] (D-scan sheet, Blot 13, CXCL12 1µg/ml, relative to H2O lane = 100.0, single blot) was found to be 89.3; in test [1] (D-scan sheet, Blot 14, CXCL12 1µg/ml, relative to H2O lane = 100.0, single blot), 93.2; in test [1] (D-scan sheet, Blot 15, CXCL12 1µg/ml, relative to H2O lane = 100.0, single blot) it was 77.6; in test [1] (D-scan sheet, Blot 16, CXCL12 1µg/ml, relative to H2O lane = 100.0, single blot), 91.1; in test [1] (D-scan sheet, Blot 17, CXCL12 10µg/ml, relative to H2O lane = 100.0, single blot), 46.4; in test [1] (D-scan sheet, Blot 18, CXCL12 10µg/ml, relative to H2O lane = 100.0, single blot), 45.6. In addition, the “E-cadherin expression relative to H2O control (= 100)” value in test [1] (D-scan sheet, Blot 19, CXCL12 10µg/ml, relative to H2O lane = 100.0, single blot) came to 84.8; in test [1] (D-scan sheet, Blot 20, CXCL12 10µg/ml, relative to H2O lane = 100.0, single blot), 28.8; in test [1] (D-scan sheet, Blot 21, CXCL12 100µg/ml, relative to H2O lane = 100.0, single blot), 80.5; in test [1] (D-scan sheet, Blot 22, CXCL12 100µg/ml, relative to H2O lane = 100.0, single blot), 80.0; in test [1] (D-scan sheet, Blot 23 (single blot), chemiluminescence band, Norm. Vol. relative to H2O lane = 100.0, CXCL12 at 100µg/ml), 75.6; in test [1] (D-scan sheet, Blot 24 (single blot), chemiluminescence band, Norm. Vol. relative to H2O lane = 100.0, CXCL12 at 100µg/ml), 96.6. Also, the “E-cadherin expression relative to H2O control (= 100)” value in test [1] (H2O = 100.0, CXCL12 at 10µg/ml, mean of the replicates (row r47, unlabelled; SEM in row below)) was determined as 51.4. Besides, in test [1] (HCT-8 cells, average (EntF* n = 15, CXCL12 n = 4)), the “Relative E-cadherin decrease in different cell lines, Average” value came out at 51.4. Besides, in test [2], the “Relative E-cadherin expression, average” value was found to be 78.2. Also, in test [3], the “Relative E-cadherin in different cell lines, Average” value was found to be 45.3. Besides, the “effect on E-cadherin expression in HCT-116 cells” value in test [4] (CXCR4-negative cells, 24 h, n = 12) was “no decrease”. The “Relative E-cadherin level” value in test [4] (HCT-116 cells, average of n = 12) is reported as 111.3.

In the case of Epidermal Growth Factor [EGF], the “effect size of bioluminescence, upper end of range” value in test [5] (after a 6-week treatment) was found to be 826%. For the same substance, the “effect size class by Hedges' G, bioluminescence” value in test [5] (setting [9]) is “medium to large effect”. Further, in test [5] (after a 6-week treatment, bootstrapped median), the “effect size: increase in bioluminescence compared to the placebo” value came out at 316%. Moreover, the “luciferase activity / tumor growth compared to the vehicle” value in test [5] (daily i.p. over 6 weeks, linear regression slope comparison) was “significant increase in tumor growth”. Besides, the “effect size class by Hedges' G, number of nodules in the cecum” value in test [6] (setting [9]) is reported as “large”. In addition, the “increase in the number of nodules on the cecum compared to PBS vehicle” value in test [6] (after a 6-week treatment, macroscopic inspection) was 4.5 fold. The “Mean amount of nodules” value in test [6] (macroscopic evaluation caecum, mean of the group) was 16.3. Also, in test [7] (setting [10]), the “Histology scoring LIVER, Scoring person 1 (ND)” value was 4 and 3 and 2 and 0; the “Histology scoring LIVER, Scoring person 2 (ADS)” value was 4 and 2 and 1 and 3 and 0; the “Histology scoring LIVER, conclusion per sample” value was 4 and 2 and 1 and 3 and 0. In addition, the “Histology scoring LIVER, conclusion per group” value in test [7] (per group) is given as 3. For the same substance, in test [8] (setting [10]), the “Histology scoring LUNGS, Scoring person 1 (ND)” value is 3 and 4 and 0 and 1; the “Histology scoring LUNGS, Scoring person 2 (ADS)” value is 3 and 4 and 0 and 1; the “Histology scoring LUNGS, conclusion per sample” value is 3 and 4 and 0 and 1. Also, the “Histology scoring LUNGS, conclusion per group” value in test [8] (per group) was 3.

For the substance TGFa, the “Relative E-cadherin decrease” value stood at 49.4514 in test [1] (Ala-scan sheet, Blot 19 (single blot), chemiluminescence band, placebo lane = 100) and 121.047 in test [1] (Ala-scan sheet, Blot 21 (single blot), chemiluminescence band, placebo lane = 100). Further, the “E-cadherin expression relative to H2O control (= 100)” value in test [1] (Ala-scan sheet, Blot 20 (single blot), chemiluminescence band, placebo lane = 100) was determined as 55.9239; in test [1] (Ala-scan sheet, Blot 24 (single blot), chemiluminescence band, Norm. Vol. relative to placebo lane = 100), 52.2; in test [1] (Ala-scan sheet, Blot 25 (single blot), chemiluminescence band, Norm. Vol. relative to placebo lane = 100) it was 30.5; in test [1] (Ala-scan sheet, Blot 26 (single blot), chemiluminescence band, Norm. Vol. relative to placebo lane = 100) it was 88.2; in test [1] (Ala-scan sheet, Blot 27 (single blot), chemiluminescence band, Norm. Vol. relative to placebo lane = 100), 330.9; in test [1] (Ala-scan, Blot 11 (single blot replicate), normalized band volume relative to Placebo = 100.0), 85.7. The “E-cadherin expression relative to H2O control (= 100)” value is 80.6 in test [1] (Ala-scan, Blot 12 (single blot replicate), normalized band volume relative to Placebo = 100.0); 55.6 in test [1] (Ala-scan, Blot 13 (single blot replicate), normalized band volume relative to Placebo = 100.0); 119.9 in test [1] (Ala-scan, Blot 14 (single blot replicate), normalized band volume relative to Placebo = 100.0); 188.1 in test [1] (Ala-scan, Blot 18 (single blot replicate), normalized band volume relative to Placebo = 100.0). For the same substance, the “Ala scan: Relative E-cadherin decrease” value in test [1] (H2O = 100.0, mean of the replicates (row r29, unlabelled; SEM in row below)) is listed as 73.9. Besides, the “Ala-scan: Mean decrease (%)” value in test [1] (H2O vs. test, 95% CI, Dunnett's and Fisher's LSD P values in neighbouring columns) is on record as 26.1%.
